Assay results: patent publication US10835524B2, “Compositions for the treatment of pancreatic cancer and uses thereof” (University of Florida Research Foundation, Incorporated, priority 2015, dated 2020)

What was measured:
[1] = test system: 4 KRAS mutant PDAC cell lines (MIA PaCa-2, Panc-1, T182, E549); assay: Viability of KRAS mutant PDAC cell lines after single-drug treatment, MTT assay at 72 hours; format: cell-based, human; murine; conditions: 4 PDAC cell lines
Description: We treated each cell line with the mTOR inhibitor Everolimus, the AKT inhibitor MK-2206, the dual PI-3K/mTOR inhibitor BEZ235, and the MEK inhibitor Selumetinib, or Compound P (mefloquine), prior to viability assessment at 72 hours via MTT assay.
To determine optimal doses for combination, we first analyzed the viability dose-response curves for each drug. […] The optimal dose for each drug was then serially diluted by one-half from the chosen optimal dose to 1/32nd of the chosen optimal dose, such that six combination points could be analyzed. Because the ratio of each drug in each experiment remained constant in all serial dilutions, we refer to this method as the “fixed molar ratio method”.

human TS = human TS (Homo sapiens, UniProt P04818); assay: Inhibition of the enzymatic activity of thymidylate synthase; format: biochemical
Sequence of human TS (P04818 whole entry): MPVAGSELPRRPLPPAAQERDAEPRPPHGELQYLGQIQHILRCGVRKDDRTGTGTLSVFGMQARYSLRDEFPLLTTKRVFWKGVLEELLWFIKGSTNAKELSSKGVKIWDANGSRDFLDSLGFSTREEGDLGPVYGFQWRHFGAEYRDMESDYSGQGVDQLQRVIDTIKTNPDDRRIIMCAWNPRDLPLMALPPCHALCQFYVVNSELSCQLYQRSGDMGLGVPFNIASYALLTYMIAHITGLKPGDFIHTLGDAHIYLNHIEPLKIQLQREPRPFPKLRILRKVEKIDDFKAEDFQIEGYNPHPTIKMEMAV

PDAC = assay: Inhibition of PDAC in vivo by combination with KRAS/PI-3K/AKT/mTOR pathway inhibitors; conditions: partner inhibitors not named

Row | mode of inhibition of the enzymatic activity of human TS (human TS) | Compound | growth inhibition effect on cell viability [1] | synergy with inhibitors of the KRAS/PI-3K/AKT/mTOR pathway to inhibit PDAC in vivo (PDAC)
1 |  | Cn1c(=O)n(-c2ccc(C(C)(C)C#N)cc2)c2c3cc(-c4cnc5ccccc5c4)ccc3ncc21 [BEZ235, 2-methyl-2-[4-(3-methyl-2-oxo-8-quinolin-3-ylimidazo[4,5-c]quinolin-1-yl)phenyl]propanenitrile] | fully cytotoxic in 3 out of 4 cell lines | 
2 | partial mixed-type | OC(c1cc(C(F)(F)F)nc2c(C(F)(F)F)cccc12)C1CCCCN1 (stereo not drawn) [Compound P, [2,8-bis(trifluoromethyl)quinolin-4-yl]-piperidin-2-ylmethanol] | cytotoxic in all cell lines tested | synergizes
3 |  | CO[C@H]1C[C@@H]2CC[C@@H](C)[C@@](O)(O2)C(=O)C(=O)N2CCCC[C@H]2C(=O)O[C@H]([C@H](C)C[C@@H]2CC[C@@H](OCCO)[C@H](OC)C2)CC(=O)[C@H](C)/C=C(\C)[C@@H](O)[C@@H](OC)C(=O)[C@H](C)C[C@H](C)/C=C/C=C/C=C/1C [Everolimus, (1S,9R,15R,16E,18R,19R,21S,23R,24E,26E,28E,30S,32R,35S)-1,18-dihydroxy-12-[(2S)-1-[(1S,3R,4R)-4-(2-hydroxyethoxy)-3-methoxycyclohexyl]propan-2-yl]-19,30-dimethoxy-15,17,21,23,29,35-hexamethyl-11,36-dioxa-4-azatricyclo[30.3.1.0^4,^9]hexatriaconta-16,24,26,28-tetraene-2,3,10,14,20-pentone] | potently cytostatic | 
4 |  | Cl.Cl.NC1(c2ccc(-c3nc4ccn5c(=O)[nH]nc5c4cc3-c3ccccc3)cc2)CCC1 [MK-2206, 8-[4-(1-aminocyclobutyl)phenyl]-9-phenyl-2H-[1,2,4]triazolo[3,4-f][1,6]naphthyridin-3-one; dihydrochloride] | fully cytotoxic in 3 out of 4 cell lines | 
